Test results taken from ChEMBL document CHEMBL5058564, “EUbOPEN Chemogenomics Library 2 (Incucyte)” (2022).

Experiments:
Format in all cases: toxicity, cell-based
HEK-293T = test: Incucyte cell viability with HEK293T; conditions: human, 10 µM, compound concentration 10 uM
Fibroblast = test: Incucyte cell viability with human fibroblast; conditions: 10 µM, compound concentration 10 uM
U2OS = test: Incucyte cell viability with U2OS; conditions: human, 10 µM, compound concentration 10 uM
[1] = 0 h, replicate number 2, timepoint 0 hours
[2] = 6 h, replicate number 1, timepoint 6 hours
[3] = 12 h, replicate number 1, timepoint 12 hours
[4] = 18 h, replicate number 1, timepoint 18 hours
[5] = 24 h, replicate number 1, timepoint 24 hours
[6] = 6 h, replicate number 2, timepoint 6 hours
[7] = 12 h, replicate number 2, timepoint 12 hours
[8] = 0 h, replicate number 1, timepoint 0 hours
[9] = 18 h, replicate number 2, timepoint 18 hours
[10] = 24 h, replicate number 2, timepoint 24 hours
Note: unitless GR value; below 1 slowed growth and below 0 cell loss.

## C[C@H]1[C@H]2CC[C@H]3[C@@H]4CC=C5C[C@@H](N(C)C)CC[C@]5(C)[C@H]4CC[C@]23CN1C [CONESSINE]
HEK-293T; [1]
  Growth Rate: 0.74
HEK-293T; [2]
  Growth Rate: 0.67
HEK-293T; [3]
  Growth Rate: 0.85
HEK-293T; [4]
  Growth Rate: 0.82
HEK-293T; [5]
  Growth Rate: 0.91
Fibroblast; [1]
  Growth Rate: 0.49
Fibroblast; [2]
  Growth Rate: 0.11
Fibroblast; [3]
  Growth Rate: 0.18
Fibroblast; [4]
  Growth Rate: 0.35
Fibroblast; [5]
  Growth Rate: 0.52
U2OS; [6]
  Growth Rate: 0.8
U2OS; [7]
  Growth Rate: 0.89

## C=CCN1C[C@H](C(=O)N(CCCN(C)C)C(=O)NCC)C[C@@H]2c3cccc4[nH]cc(c34)C[C@H]21 [CABERGOLINE]
HEK-293T; [2]
  Growth Rate: 0.78
HEK-293T; [6]
  Growth Rate: 0.46
HEK-293T; [3]
  Growth Rate: 0.93
Fibroblast; [8]
  Growth Rate: -0.05
Fibroblast; [1]
  Growth Rate: 0.7
Fibroblast; [2]
  Growth Rate: 0.44
Fibroblast; [6]
  Growth Rate: 1
Fibroblast; [3]
  Growth Rate: 0.91
U2OS; [1]
  Growth Rate: -1

## CC(C)Oc1ccc(Cc2ccc(NC3=NCCN3)cc2)cc1
HEK-293T; [2]
  Growth Rate: -0.2
HEK-293T; [6]
  Growth Rate: -0.01
HEK-293T; [3]
  Growth Rate: 0.03
HEK-293T; [7]
  Growth Rate: 0.1
HEK-293T; [4]
  Growth Rate: 0.16
HEK-293T; [9]
  Growth Rate: 0.27
HEK-293T; [5]
  Growth Rate: 0.24
HEK-293T; [10]
  Growth Rate: 0.21
Fibroblast; [2]
  Growth Rate: 0.07
Fibroblast; [6]
  Growth Rate: -0.09
Fibroblast; [3]
  Growth Rate: 0.4
Fibroblast; [7]
  Growth Rate: 0.19
Fibroblast; [4]
  Growth Rate: 0.28
Fibroblast; [9]
  Growth Rate: 0.64
Fibroblast; [5]
  Growth Rate: 0.42
Fibroblast; [10]
  Growth Rate: 0.46
U2OS; [8]
  Growth Rate: -0.1
U2OS; [1]
  Growth Rate: 0.45
U2OS; [2]
  Growth Rate: 0.26
U2OS; [6]
  Growth Rate: 0.51
U2OS; [3]
  Growth Rate: 0.74
U2OS; [7]
  Growth Rate: 0.75
U2OS; [4]
  Growth Rate: 0.82
U2OS; [9]
  Growth Rate: 0.91
U2OS; [5]
  Growth Rate: 0.84
U2OS; [10]
  Growth Rate: 0.95

## CC1(C)[C@H]2C[C@H](C/C=C\CCCC(=O)O)[C@@H](NC(=O)c3csc4ccc(O)cc34)[C@@H]1C2
HEK-293T; [1]
  Growth Rate: 0.67
HEK-293T; [2]
  Growth Rate: 0.73
HEK-293T; [4]
  Growth Rate: 0.94
HEK-293T; [5]
  Growth Rate: 0.85
Fibroblast; [2]
  Growth Rate: 0.09
Fibroblast; [3]
  Growth Rate: 0.51
Fibroblast; [7]
  Growth Rate: 0.75
Fibroblast; [4]
  Growth Rate: 0.69
U2OS; [1]
  Growth Rate: -0.79
U2OS; [2]
  Growth Rate: 0.23
U2OS; [6]
  Growth Rate: 0.91
U2OS; [3]
  Growth Rate: 0.14
U2OS; [4]
  Growth Rate: 0.37
U2OS; [9]
  Growth Rate: 0.81
U2OS; [5]
  Growth Rate: 0.66
U2OS; [10]
  Growth Rate: 0.86

## C[C@H]1[C@H](OC(=O)CCC(=O)O)O[C@@H]2O[C@@]3(C)CC[C@H]4[C@H](C)CC[C@@H]1[C@@]24OO3 [ARTESUNATE]
HEK-293T; [1]
  Growth Rate: 0.58
HEK-293T; [2]
  Growth Rate: 0.56
HEK-293T; [3]
  Growth Rate: -0.23
HEK-293T; [7]
  Growth Rate: -0.1
HEK-293T; [4]
  Growth Rate: -0.07
HEK-293T; [9]
  Growth Rate: -0.18
HEK-293T; [5]
  Growth Rate: -0.08
HEK-293T; [10]
  Growth Rate: -0.16
Fibroblast; [8]
  Growth Rate: 0.98
Fibroblast; [1]
  Growth Rate: 0.19
Fibroblast; [3]
  Growth Rate: 0.22
Fibroblast; [7]
  Growth Rate: 0.75
Fibroblast; [4]
  Growth Rate: -0.31
Fibroblast; [9]
  Growth Rate: 0.04
Fibroblast; [5]
  Growth Rate: -0.42
Fibroblast; [10]
  Growth Rate: -0.06
U2OS; [8]
  Growth Rate: 0.12
U2OS; [1]
  Growth Rate: 0.07
U2OS; [2]
  Growth Rate: 0.66
U2OS; [6]
  Growth Rate: 0.72
U2OS; [7]
  Growth Rate: 0.85
U2OS; [4]
  Growth Rate: 0.86
U2OS; [9]
  Growth Rate: 0.75
U2OS; [5]
  Growth Rate: 0.98
U2OS; [10]
  Growth Rate: 0.81

## COc1cc2nc(N3CCN(C(=O)C4CCCO4)CC3)nc(N)c2cc1OC.Cl.O.O (stereo unspecified) [TERAZOSIN HYDROCHLORIDE]
HEK-293T; [8]
  Growth Rate: 0.72
HEK-293T; [1]
  Growth Rate: 0.29
HEK-293T; [2]
  Growth Rate: 0.91
HEK-293T; [3]
  Growth Rate: 0.69
HEK-293T; [7]
  Growth Rate: 0.83
HEK-293T; [4]
  Growth Rate: 0.78
HEK-293T; [9]
  Growth Rate: 0.79
HEK-293T; [5]
  Growth Rate: 0.87
HEK-293T; [10]
  Growth Rate: 0.79
Fibroblast; [8]
  Growth Rate: 0.68
Fibroblast; [1]
  Growth Rate: 0.43
Fibroblast; [6]
  Growth Rate: 0.32
Fibroblast; [7]
  Growth Rate: 0.84
Fibroblast; [9]
  Growth Rate: 0.8
Fibroblast; [10]
  Growth Rate: 0.57
U2OS; [1]
  Growth Rate: 0.74
U2OS; [2]
  Growth Rate: 0.56
U2OS; [6]
  Growth Rate: 0.76
U2OS; [3]
  Growth Rate: 0.73
U2OS; [4]
  Growth Rate: 0.88
U2OS; [5]
  Growth Rate: 0.99

## CN[C@@H]1CCc2[nH]c3ccc(C(N)=O)cc3c2C1.O.O=C(O)CCC(=O)O [FROVATRIPTAN SUCCINATE]
HEK-293T; [8]
  Growth Rate: -0.07
HEK-293T; [1]
  Growth Rate: 0.02
HEK-293T; [6]
  Growth Rate: 0.9
HEK-293T; [9]
  Growth Rate: 0.94
HEK-293T; [5]
  Growth Rate: 0.98
HEK-293T; [10]
  Growth Rate: 0.82
Fibroblast; [2]
  Growth Rate: 0.36
Fibroblast; [4]
  Growth Rate: 0.81
Fibroblast; [5]
  Growth Rate: 0.66
U2OS; [8]
  Growth Rate: -0.34
U2OS; [1]
  Growth Rate: 0.89
U2OS; [2]
  Growth Rate: 0.73
U2OS; [3]
  Growth Rate: 0.48
U2OS; [4]
  Growth Rate: 0.74
U2OS; [5]
  Growth Rate: 0.63

## Cc1cc(NC(=O)NCCN2CCC(O)(Cc3ccccc3)CC2)c2ccccc2n1 [PALOSURAN]
HEK-293T; [8]
  Growth Rate: 0.55
HEK-293T; [1]
  Growth Rate: -1
HEK-293T; [2]
  Growth Rate: 0.95
HEK-293T; [3]
  Growth Rate: 0.83
Fibroblast; [1]
  Growth Rate: 0.27
Fibroblast; [2]
  Growth Rate: -0.3
Fibroblast; [3]
  Growth Rate: 0.72
Fibroblast; [4]
  Growth Rate: 0.32
Fibroblast; [5]
  Growth Rate: 0.22
U2OS; [8]
  Growth Rate: 0.34
U2OS; [1]
  Growth Rate: 0.13
U2OS; [2]
  Growth Rate: 0.57
U2OS; [6]
  Growth Rate: 0.73
U2OS; [3]
  Growth Rate: 0.33
U2OS; [4]
  Growth Rate: 0.73
U2OS; [9]
  Growth Rate: 0.98
U2OS; [5]
  Growth Rate: 0.87
